Test [1] addresses Tyrosine-protein kinase Lyn (Homo sapiens, UniProt P07948). Briefly: Selectivity interaction (Kinase panel (Z-LYTE Assay)) EUB0001632a LYN. The following applies: at 10 µM.
In test [2] the target is Focal adhesion kinase 1 (Homo sapiens, UniProt Q05397). Briefly: Selectivity interaction (Kinase panel (Z-LYTE Assay)) EUB0001632a PTK2. The following applies: at 10 µM.
The target of test [3] is Serine/threonine-protein kinase Nek4 (Homo sapiens) (UniProt P51957). Briefly: Selectivity interaction (Kinase panel (KiNativ target engagement assay in Jurkat cells)) EUB0001635a NEK4. The class given is cell-based. The following applies: at 1 µM.
The target of test [4] is Serine/threonine-protein kinase RIO2 (Homo sapiens) (UniProt Q9BVS4). Briefly: Selectivity interaction (KinomeScan (DiscoverX)) EUB0000607a RIOK2. As to conditions: at 10 µM.
For test [5], the system named is Leucine-rich repeat serine/threonine-protein kinase 2 (Homo sapiens), Q5S007 [G2019S]. The following applies: at 10 µM.
Test [6] addresses Vascular endothelial growth factor receptor 3 (Homo sapiens, UniProt P35916). As to conditions: at 10 µM.
In test [7] the target is T1, Mitogen-activated protein kinase kinase kinase kinase 3 (Homo sapiens) (UniProt Q8IVH8).
T1 sequence (whole entry): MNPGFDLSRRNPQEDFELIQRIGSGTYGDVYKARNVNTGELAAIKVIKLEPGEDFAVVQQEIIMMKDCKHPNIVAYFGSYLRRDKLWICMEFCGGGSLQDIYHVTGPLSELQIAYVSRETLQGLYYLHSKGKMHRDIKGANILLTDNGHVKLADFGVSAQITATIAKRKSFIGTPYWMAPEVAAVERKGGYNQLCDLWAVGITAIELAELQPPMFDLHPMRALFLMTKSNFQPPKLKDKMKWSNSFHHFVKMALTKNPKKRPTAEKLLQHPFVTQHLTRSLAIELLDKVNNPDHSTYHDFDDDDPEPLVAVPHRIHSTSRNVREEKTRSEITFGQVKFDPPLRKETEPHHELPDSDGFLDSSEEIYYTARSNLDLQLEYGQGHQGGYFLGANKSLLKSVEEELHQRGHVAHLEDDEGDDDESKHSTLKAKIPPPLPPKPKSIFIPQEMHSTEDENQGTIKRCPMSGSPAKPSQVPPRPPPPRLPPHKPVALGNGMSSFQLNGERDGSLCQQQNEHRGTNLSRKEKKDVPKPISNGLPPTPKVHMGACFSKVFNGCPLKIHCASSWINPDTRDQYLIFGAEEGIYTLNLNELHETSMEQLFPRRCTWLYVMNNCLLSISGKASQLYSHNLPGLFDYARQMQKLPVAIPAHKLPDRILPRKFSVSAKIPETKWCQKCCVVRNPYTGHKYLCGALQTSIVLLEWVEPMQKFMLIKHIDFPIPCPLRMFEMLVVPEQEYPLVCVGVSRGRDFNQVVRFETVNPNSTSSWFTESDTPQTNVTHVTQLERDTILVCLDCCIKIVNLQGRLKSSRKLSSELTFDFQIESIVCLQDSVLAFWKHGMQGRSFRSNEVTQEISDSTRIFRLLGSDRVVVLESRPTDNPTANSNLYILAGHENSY
Briefly: Selectivity interaction (KinomeScan (DiscoverX)) EUB0000666a MAP4K3. As to conditions: at 10 µM.

For test [8], the target named is Fibroblast growth factor receptor 3 (Homo sapiens, UniProt P22607). Briefly: (§1) Selectivity interaction (KinomeScan (DiscoverX)) EUB0000655a FGFR3. As to conditions: at 10 µM.
Test [9] deals with Fibroblast growth factor receptor 3 (Homo sapiens), P22607 [G697C]. The description is as §1. The following applies: at 10 µM.
Test [10] concerns the target Calcium/calmodulin-dependent protein kinase type II subunit beta (Homo sapiens) (UniProt Q13554). Briefly: Selectivity interaction (ActivX KiNativ screen (kinase selectivity in THP-1 cell lysates)) EUB0000639a CAMK2B. The class given is subcellular. The following applies: lysate, at 5 µM.
The subject of test [11] is Phosphatidylinositol 4,5-bisphosphate 3-kinase catalytic subunit alpha isoform (Homo sapiens), P42336 [E545K]. As to conditions: at 10 µM.
The target of test [12] is Mitogen-activated protein kinase 8 (Homo sapiens, UniProt P45983). Briefly: Selectivity interaction (Millipore kinase profiler) EUB0000124b MAPK8. The following applies: at 10 µM.
Test [13] concerns the target T2, Casein kinase I isoform alpha-like (Homo sapiens) (UniProt Q8N752).
T2 sequence (whole entry): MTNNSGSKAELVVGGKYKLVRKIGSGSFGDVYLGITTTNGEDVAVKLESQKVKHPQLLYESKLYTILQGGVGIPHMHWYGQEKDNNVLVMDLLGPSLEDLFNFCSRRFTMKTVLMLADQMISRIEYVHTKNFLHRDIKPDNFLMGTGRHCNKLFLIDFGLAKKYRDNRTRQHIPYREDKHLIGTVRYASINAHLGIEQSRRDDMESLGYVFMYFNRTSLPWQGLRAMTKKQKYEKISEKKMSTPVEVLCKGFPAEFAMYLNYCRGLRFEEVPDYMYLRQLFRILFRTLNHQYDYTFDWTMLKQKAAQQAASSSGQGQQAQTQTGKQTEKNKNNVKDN
Briefly: Selectivity interaction (KinomeScan (DiscoverX)) EUB0001049a CSNK1A1L. As to conditions: at 1 µM.

Test [14] has as its target Tyrosine-protein kinase Lck (Homo sapiens, UniProt P06239). Briefly: Selectivity interaction (KinomeScan (DiscoverX)) EUB0000092b LCK. The following applies: at 10 µM.
In test [15] the test system is eIF-2-alpha kinase GCN2 (Homo sapiens), Q9P2K8 [S808G]. Briefly: Selectivity interaction (KinomeScan (DiscoverX)) EUB0000045b EIF2AK4.
Test [16] addresses Serine/threonine-protein kinase 32A (Homo sapiens) (UniProt Q8WU08). Briefly: Selectivity interaction (KinomeScan (DiscoverX)) EUB0000045b STK32A.

The values below come from ChEMBL document CHEMBL5465560, “Selectivity Literature for EUbOPEN Chemogenomic Library” (2024).

Sequence of Serine/threonine-protein kinase 32A (Homo sapiens) (Q8WU08 whole entry): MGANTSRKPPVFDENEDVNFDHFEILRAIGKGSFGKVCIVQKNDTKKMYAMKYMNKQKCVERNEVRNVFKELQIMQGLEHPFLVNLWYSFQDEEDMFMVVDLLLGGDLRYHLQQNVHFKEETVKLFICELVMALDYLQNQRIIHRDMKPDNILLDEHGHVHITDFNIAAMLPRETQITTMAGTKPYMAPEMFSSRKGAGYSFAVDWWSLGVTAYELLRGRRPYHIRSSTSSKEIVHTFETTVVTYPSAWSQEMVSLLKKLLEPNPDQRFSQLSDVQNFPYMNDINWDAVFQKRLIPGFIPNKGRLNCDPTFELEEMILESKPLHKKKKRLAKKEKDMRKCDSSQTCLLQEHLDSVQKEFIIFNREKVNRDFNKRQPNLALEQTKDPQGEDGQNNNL
Sequence of eIF-2-alpha kinase GCN2 (Homo sapiens), Q9P2K8 [S808G] (Q9P2K8 whole entry S808G): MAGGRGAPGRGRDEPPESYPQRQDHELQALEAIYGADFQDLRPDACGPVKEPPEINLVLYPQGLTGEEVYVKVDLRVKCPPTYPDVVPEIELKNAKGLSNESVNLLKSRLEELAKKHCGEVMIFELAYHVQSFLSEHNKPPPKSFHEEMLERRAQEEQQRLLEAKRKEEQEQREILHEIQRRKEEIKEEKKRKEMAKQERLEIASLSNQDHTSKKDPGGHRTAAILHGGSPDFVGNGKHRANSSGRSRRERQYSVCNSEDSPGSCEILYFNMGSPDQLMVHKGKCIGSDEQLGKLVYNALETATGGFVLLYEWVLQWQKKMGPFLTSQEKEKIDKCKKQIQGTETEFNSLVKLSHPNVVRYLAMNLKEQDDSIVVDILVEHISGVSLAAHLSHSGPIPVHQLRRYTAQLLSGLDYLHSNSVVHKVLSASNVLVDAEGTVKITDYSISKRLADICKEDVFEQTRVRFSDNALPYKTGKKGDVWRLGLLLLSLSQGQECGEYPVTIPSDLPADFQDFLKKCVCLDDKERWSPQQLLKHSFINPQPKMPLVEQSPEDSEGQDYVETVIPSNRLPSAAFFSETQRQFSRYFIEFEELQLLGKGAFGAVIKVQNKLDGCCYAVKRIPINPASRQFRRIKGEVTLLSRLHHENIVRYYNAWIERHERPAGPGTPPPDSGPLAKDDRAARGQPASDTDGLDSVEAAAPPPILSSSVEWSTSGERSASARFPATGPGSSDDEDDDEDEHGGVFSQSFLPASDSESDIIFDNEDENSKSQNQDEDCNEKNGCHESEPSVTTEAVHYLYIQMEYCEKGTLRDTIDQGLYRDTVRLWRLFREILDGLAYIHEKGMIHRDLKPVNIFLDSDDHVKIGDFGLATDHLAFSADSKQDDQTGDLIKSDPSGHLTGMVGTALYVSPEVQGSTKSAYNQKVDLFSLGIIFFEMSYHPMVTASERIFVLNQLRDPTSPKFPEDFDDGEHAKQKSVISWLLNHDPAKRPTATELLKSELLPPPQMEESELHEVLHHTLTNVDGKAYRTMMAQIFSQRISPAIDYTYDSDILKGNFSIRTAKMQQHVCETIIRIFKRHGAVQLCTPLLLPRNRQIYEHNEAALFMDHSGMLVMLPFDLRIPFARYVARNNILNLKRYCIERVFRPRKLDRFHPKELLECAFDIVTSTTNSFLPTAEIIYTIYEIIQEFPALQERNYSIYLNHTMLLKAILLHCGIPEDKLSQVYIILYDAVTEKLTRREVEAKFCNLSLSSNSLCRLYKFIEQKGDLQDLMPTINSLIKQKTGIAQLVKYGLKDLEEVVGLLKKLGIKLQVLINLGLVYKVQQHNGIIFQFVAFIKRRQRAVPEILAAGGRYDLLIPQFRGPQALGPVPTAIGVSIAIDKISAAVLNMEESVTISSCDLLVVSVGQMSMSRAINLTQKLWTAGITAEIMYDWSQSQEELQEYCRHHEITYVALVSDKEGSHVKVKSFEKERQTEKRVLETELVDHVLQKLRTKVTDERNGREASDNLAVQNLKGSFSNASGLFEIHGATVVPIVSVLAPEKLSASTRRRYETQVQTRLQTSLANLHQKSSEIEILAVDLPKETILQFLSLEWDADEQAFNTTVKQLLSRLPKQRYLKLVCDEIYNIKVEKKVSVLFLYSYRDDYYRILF
Sequence of Serine/threonine-protein kinase RIO2 (Homo sapiens) (Q9BVS4 whole entry, looked up): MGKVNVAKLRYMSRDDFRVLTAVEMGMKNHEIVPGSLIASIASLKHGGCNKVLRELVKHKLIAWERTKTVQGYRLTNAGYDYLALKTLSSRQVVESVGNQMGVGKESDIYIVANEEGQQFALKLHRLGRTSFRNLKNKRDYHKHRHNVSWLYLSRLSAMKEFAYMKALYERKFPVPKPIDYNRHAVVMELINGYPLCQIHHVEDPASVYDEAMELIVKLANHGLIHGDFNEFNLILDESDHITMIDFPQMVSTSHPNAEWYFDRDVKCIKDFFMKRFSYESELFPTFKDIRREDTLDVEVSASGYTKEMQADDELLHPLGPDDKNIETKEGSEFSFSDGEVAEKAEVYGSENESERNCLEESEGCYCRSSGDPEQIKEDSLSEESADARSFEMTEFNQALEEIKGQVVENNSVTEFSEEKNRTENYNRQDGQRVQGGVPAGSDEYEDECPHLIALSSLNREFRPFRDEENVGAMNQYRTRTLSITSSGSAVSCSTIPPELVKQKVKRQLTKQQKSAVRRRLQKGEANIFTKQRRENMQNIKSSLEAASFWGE
Sequence of Tyrosine-protein kinase Lck (P06239 2-509 limits assumed): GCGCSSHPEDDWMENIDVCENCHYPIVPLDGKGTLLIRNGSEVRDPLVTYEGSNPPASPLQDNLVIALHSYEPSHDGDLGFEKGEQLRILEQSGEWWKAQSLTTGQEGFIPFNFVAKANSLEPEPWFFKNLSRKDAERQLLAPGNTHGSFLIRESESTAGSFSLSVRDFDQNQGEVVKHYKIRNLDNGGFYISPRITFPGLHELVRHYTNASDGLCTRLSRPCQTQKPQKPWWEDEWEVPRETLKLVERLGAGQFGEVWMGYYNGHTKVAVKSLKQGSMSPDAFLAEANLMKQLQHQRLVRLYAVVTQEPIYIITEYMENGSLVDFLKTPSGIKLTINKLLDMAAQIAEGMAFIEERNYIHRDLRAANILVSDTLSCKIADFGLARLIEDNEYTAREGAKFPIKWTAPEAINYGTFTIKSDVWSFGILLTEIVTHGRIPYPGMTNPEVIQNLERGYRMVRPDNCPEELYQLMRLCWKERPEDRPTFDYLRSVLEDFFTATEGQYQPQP
Sequence of Focal adhesion kinase 1 (Q05397 2-1052 limits assumed): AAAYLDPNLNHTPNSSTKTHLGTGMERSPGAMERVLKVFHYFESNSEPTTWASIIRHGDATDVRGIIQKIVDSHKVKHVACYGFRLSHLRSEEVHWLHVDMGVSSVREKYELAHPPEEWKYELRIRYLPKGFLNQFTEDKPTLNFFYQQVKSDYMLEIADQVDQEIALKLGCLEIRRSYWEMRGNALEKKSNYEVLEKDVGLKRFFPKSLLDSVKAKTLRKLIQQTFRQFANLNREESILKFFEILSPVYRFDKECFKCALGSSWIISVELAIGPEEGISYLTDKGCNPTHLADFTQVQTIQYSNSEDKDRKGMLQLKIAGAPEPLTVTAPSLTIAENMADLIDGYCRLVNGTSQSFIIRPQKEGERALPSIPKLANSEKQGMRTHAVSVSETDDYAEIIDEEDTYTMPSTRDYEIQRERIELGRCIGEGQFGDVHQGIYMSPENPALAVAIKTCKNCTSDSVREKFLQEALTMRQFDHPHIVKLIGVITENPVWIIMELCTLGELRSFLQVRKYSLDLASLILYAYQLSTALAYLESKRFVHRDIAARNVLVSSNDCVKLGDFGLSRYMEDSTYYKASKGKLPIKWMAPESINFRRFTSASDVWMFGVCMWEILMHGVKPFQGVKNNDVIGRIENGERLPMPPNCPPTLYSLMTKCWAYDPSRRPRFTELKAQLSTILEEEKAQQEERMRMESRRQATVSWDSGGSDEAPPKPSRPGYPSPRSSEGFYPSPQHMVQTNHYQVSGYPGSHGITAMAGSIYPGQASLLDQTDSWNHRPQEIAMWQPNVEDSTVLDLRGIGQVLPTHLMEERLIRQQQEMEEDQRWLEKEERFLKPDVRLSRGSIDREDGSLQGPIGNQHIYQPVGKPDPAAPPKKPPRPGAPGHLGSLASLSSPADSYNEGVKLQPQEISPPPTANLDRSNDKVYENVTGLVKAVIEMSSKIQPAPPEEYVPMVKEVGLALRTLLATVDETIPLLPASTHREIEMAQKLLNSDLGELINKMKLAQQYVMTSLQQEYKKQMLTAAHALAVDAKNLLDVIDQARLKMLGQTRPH
Sequence of Mitogen-activated protein kinase 8 (P45983 whole entry, canonical isoform): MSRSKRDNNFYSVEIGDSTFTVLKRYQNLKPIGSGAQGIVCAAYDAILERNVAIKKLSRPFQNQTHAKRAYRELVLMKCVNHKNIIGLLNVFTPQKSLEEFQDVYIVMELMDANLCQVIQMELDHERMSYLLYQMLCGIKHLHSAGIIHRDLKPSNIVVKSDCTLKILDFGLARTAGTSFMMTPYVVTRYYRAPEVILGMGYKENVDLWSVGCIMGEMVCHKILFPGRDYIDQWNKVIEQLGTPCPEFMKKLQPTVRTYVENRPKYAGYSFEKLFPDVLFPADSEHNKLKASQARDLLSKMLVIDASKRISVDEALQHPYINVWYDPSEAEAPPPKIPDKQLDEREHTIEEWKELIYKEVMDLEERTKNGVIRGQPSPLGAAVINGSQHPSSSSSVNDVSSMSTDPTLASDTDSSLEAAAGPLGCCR

As for `Cn1cc(-n2cnc3c(NCc4nc5cc(Cl)c(Cl)cc5[nH]4)nc(N4CCOCC4)nc32)cn1`, the values for the % of control in [1] and in test [2] were 8.19% and 5.39%, respectively.
In test [3], `C=CC(=O)Nc1ccc(C(=O)Nc2[nH]nc3c2CN(C(=O)N[C@H](CN(C)C)c2ccccc2)C3(C)C)cc1` showed a % of engagement of 0.8%.
As to `CNC(=O)Nc1ccc(-c2nc(N3CC4CCC(C3)O4)c3cnn(C4CCC5(CC4)OCCO5)c3n2)cc1`, in test [4], the % of control is 90%.
`Cc1cc([C@@H](C)Nc2ccccc2C(=O)O)c2nc(N3CCOCC3)cc(=O)n2c1` [AZD-6482]: the % of control in [5] was found to be 100%; in [6] it was 95%.
As to `O=C(NOC[C@H](O)CO)c1ccc(F)c(F)c1Nc1ccc(I)cc1F`, in test [7], the % of control is 87%.
In the case of `CN(C)CCOc1ccc(-c2nc(-c3ccncc3)c(-c3ccc4c(c3)CC/C4=N\O)[nH]2)cc1`, the % of control in test [8] and in test [9] was 100% each time.
Turning to `CC[C@@H]1[C@H](F)C(=O)N[C@@H]1COc1nccc2cc(C(N)=O)c(OC)cc12` [ZIMLOVISERTIB], the % of inhibition in [10] was 19.6%.
The compound `CCN(CC)CCCCNc1ncc2cc(-c3cc(OC)cc(OC)c3)c(NC(=O)NC(C)(C)C)nc2n1` gave a % of control in test [11] of 100%.
The compound `CC(=O)Nc1cccc(-n2c(=O)n(C3CC3)c(=O)c3c(Nc4ccc(I)cc4F)n(C)c(=O)c(C)c32)c1` yielded a % of control in test [12] of 104%.
In [13], `COc1cc(Nc2nc(C)cc(-c3cnn4nc(OC)ccc34)n2)cc(C(F)(F)F)c1` came in with a % of control of 100%.
`CCC(=O)N1CCN(c2ccc(-n3c(=O)ccc4cnc5ccc(-c6cnc7ccccc7c6)cc5c43)cc2C(F)(F)F)CC1` showed a % of control in test [14] of 77%.
Take `C=CC(=O)Nc1cc(-n2c(=O)ccc3cnc4ccc(-c5ccc(NS(C)(=O)=O)cc5)cc4c32)ccc1C`: the % of control in [15] (at 1 µM) amounted to 100%; in test [15] (at 10 µM) it was 84%; in test [16] (at 1 µM), 100%; in test [16] (at 10 µM), 100%.
